From patent US10209240B2, “Predicting human developmental toxicity of pharmaceuticals using human stem-like cells and metabolomic ratios” (STEMINA BIOMARKER DISCOVERY, INC., priority 2012, dated 2019)
Like-named read-outs stand apart in the source and are kept apart here.

Experiments:
WA09 hES cells [1] = experiment: Phase 2 targeted biomarker assay, ornithine/cystine ratio, 9-point dose response; conditions: for Teratogenicity Potential (μM) O/C Ratio: human, 72 h
Source text: Undifferentiated hES Cell Line Maintenance (Phases 1 and 2). WA09 hES cells were obtained from the WiCell Research Institute (Madison, Wis.) and were maintained in feeder free conditions using mTeSR1 media (StemCell Technologies, Inc., Vancouver, BC, Canada) on hESC-qualified Matrigel (BD Biosciences, San Jose, Calif.) coated 6-well plates. To maintain the undifferentiated stem cell population, differentiated colonies were removed daily through aspiration and media was replaced. Additionally, the hES cells were only used in experiments up to passage 40 and were karyotyped approximately every 10 passages to minimize and monitor the potential for genetic instability. hES cells were passaged at 90-95% confluency (approximately every 7 days) using Versene (Life Technologies, Grand Island, N.Y.). Cell cultures were maintained at 37° C. under 5% CO2.
96-well hES Cell Plating (Phases 1 and 2). All experimental treatments were carried out in 96-well plates. To minimize plating variability and increase reproducibility, hES cells were plated as a single cell suspension and maintained in an undifferentiated state during compound exposure. Prior to plating in the 96-well plates, hES cells were removed from a 6-well plate using TrypLE (Life Technologies). The cells were washed with DMEM/F12 (Life Technologies) and resuspended in mTeSR1 containing 10 μM Y27632 Rho-associated kinase (ROCK) inhibitor (Merck KGaA/Calbiochem, Darmstadt, Germany). The ROCK inhibitor is added to the plating media to increase plating efficiency by decreasing dissociation-induced apoptosis. The inner 60 wells of hESC-qualified Matrigel coated 96-well plates were seeded at a density of 100,000 cells per well. The outer wells of the plate contained an equal volume media to minimize differences in humidity across the plate. Compound exposure began 24 hours after plating.
(§1) Phase 2 hES Cell Compound Exposure. […] The standard compound exposure levels used for most compounds were nine, 3-fold dilutions ranging from 0.04 μM-300 μM (FIG. 1B). […] The stock solution was diluted 1:1000 in mTeSR1 media and subsequent dilutions were performed in mTeSR1 containing 0.1% DMSO such that the final concentration of DMSO was 0.1% in all treatments. hES cells were treated for 72 hours and spent media from the last 24-hour treatment period was collected and added to acetonitrile containing ^13C6 labeled arginine (Cambridge Isotope Laboratories, Andover, Md.) as described under Phase 1. Spent media samples were stored at −80° C. until prepared for LC-HRMS analysis. Cell viability was assessed using the CellTiter-Fluor Cell Viability Assay. A quality control step was included with criteria that the CV of the measured viability RFU of the DMSO control cells could not exceed 10% for a plate to undergo LC-HRMS analysis. A dose response curve was fit to the reference treatment (0.1% DMSO treated control cells) normalized data (Viability RFUTrt X/Viability RFUDMSO) using a four-parameter log-logistic model with the R package “drc” (Ritz and Streibig, 2005, J Statistical Software; 12:1-22).
Sample Preparation (Phases 1 and 2). High molecular weight constituents (>10 KDa) of the spent media samples were removed using a Millipore Multiscreen Ultracel-10 filter plate (EMD Millipore, Billerica, Mass.). Prior to sample filtration, the filter plate was washed with 0.1% NaOH to remove a known contaminant polymer. The plate was then rinsed twice with HPLC-grade water to remove residual polymers and NaOH. Spent media samples were added to the washed filter plate. In Phase 1, samples were spiked with ^13C6 labeled arginine. Samples were centrifuged at 2,000×g at 4° C. for 200 minutes. The filtrate was collected and concentrated overnight in a Savant High Capacity Speedvac Plus Concentrator.

WA09 hES cells [2] = tested on: WA09 hES cells
Description: Phase I hES Cell Compound Exposure. hES cells were treated with a test compound at a single concentration equivalent to the compound's published therapeutic Cmax. […] This was done to ensure that enough cells were present at the time of sample collection to provide a signal for LC-HRMS analysis. For test compound exposure, all compound stock solutions, with the exception of valproic acid, were made with DMSO (Sigma-Aldrich). […] Each 96-well plate included media controls with and without test compound, 0.1% DMSO solvent control cells and cells exposed to a single concentration of eight different test compounds (FIG. 1A). Media controls were included on each plate to assess the impact of test compound on the sample matrix. hES cells were exposed to the test compound for 72 hours, with media and test compound replacement every 24 hours. Cells were monitored throughout the treatment period to ensure that no differentiation was occurring. After 72 hours of treatment, the spent media from the final 24-hour treatment period was collected and added to acetonitrile (Sigma-Aldrich, final acetonitrile concentration 40%), to halt metabolic processes and precipitate proteins from solution. Individual wells from each 96-well plate were collected and analyzed as separate samples. These samples were then stored at −80° C. until prepared for LC-HRMS analysis. Cell viability was assessed using the CellTiter-Fluor Cell Viability Assay as per the manufacturer's instructions (Promega, Madison, Wis.). Quality control parameters were set such that if the coefficient of variation (CV) for the viability relative fluorescent units (RFU) of the 6 cellular samples in a treatment exceeded 10% and no outliers were identified using the Grubb's test (see the worldwide web at graphpad.com/quickcalcs/Grubbs1.cfm), analysis was halted for that compound and the cell culture experiment was repeated. If outliers were present, the outlier sample was removed from analysis. If the CV for the DMSO control cell samples on a plate were outside of the quality control parameters, the entire plate was repeated. hES cell exposure to each of the 23 compounds was replicated a total of nine times.
as §1
Phase 2 Prediction of Developmental Toxicity Potential. […] FIG. 2 illustrates how the assay is applied in this situation. A test compound is considered to be teratogenic at the exposure level where the o/c ratio exceeds the teratogenicity threshold (red box, FIG. 2).

hES cells [3] = experiment: devTOX computational model predictions (Version 2.0, Version 2.1) from hES cell metabolomics; type: cell-based, human; conditions: single dose per treatment (Dose column)
Source text: The selection process weighted the predictive capacity of a feature, overall intensity, and peak shape to identify very well behaved features/metabolites that could be measured by targeted LC-MS or even by other detection systems.
(§2) This simplified model is based on a ratio of the reference treatment (DMSO) normalized values of ADMA and cystine.

hES cells [4] = experiment: ADMA/cystine ratio simplified predictive model in hES cell spent media; type: cell-based, human; conditions: single dose per treatment; ratios less than 0.9 indicate teratogenicity
Source text: as §2
The X-axis is the reference normalized ratio of ADMA/Cystine. The y-axis is the training set of pharmaceuticals. Grey color with triangle glyphs represents teratogens and black color with circle glyphs represents non-teratogens. Each glyph point represents the media value of an independent experimental block (6 reps per block). The crosshair glyphs mark the sample medians. In FIG. 9, grey vertical line is threshold of teratogenicity, grey horizontal lines are the median absolute deviations, and black vertical line designates 1.0. The arrows at the bottom indicate the values used for differentiation of teratogens and nonteratogens, utilizing a cut off of 0.9 (grey line).

[5] = therapeutic peak plasma in vivo concentration, human, cited from earlier work
Humans = conditions: cited from earlier work; for Humans (known human developmental toxicity): training and test set; for Known Effect: validation and test set treatments of Example 2
Rodent = conditions: training and test set; cited from earlier work
[6] = summarized from TERIS and Briggs et al. 2011, cited from earlier work
Rabbit = conditions: training and test set; cited from earlier work

SMILES	O/C Ratio Prediction (WA09 hES cells [1])	Targeted Biomarker Assay prediction (WA09 hES cells [1])	Teratogenicity Potential (μM) O/C Ratio (WA09 hES cells [1])	Viability Prediction (WA09 hES cells [2])	Teratogenicity Potential (μM) Cell Viability (WA09 hES cells [2]; human, 72 h)	Model Predictions Version 2.0 (hES cells [3])	Model Predictions Version 2.1 (hES cells [3])	Model Predictions ADMA/Cystine (hES cells [4])	Cmax ([5]; test set)	Humans (known human developmental toxicity) (Humans)	Known Effect (Humans)	Rodent prediction (Rodent)	Preclinical in vivo and known human developmental effects ([6]; test set compounds)	Cytotoxicity at the Cmax exposure level (WA09 hES cells [2]; human, 72 h)	Cmax ([5]; training set)	Targeted Biomarker Assay prediction (WA09 hES cells [1]; training and test set, o/c ratio scored against therapeutic Cmax)	Teratogenicity Potential (μM) Cell Viability (WA09 hES cells [2]; training set, interpolated concentration where cell viability dose response curve crosses teratogenicity threshold 0.88, 72 hours)	Viability Prediction (WA09 hES cells [2]; training set, teratogenicity potential scored against therapeutic Cmax)	Preclinical in vivo and known human developmental effects ([6]; training set compounds)	Rabbit prediction (Rabbit)
CC1(C)S[C@@H]2[C@H](NC(=O)[C@H](N)c3ccc(O)cc3)C(=O)N2[C@H]1C(=O)O [Amoxicillin]	NON	NON	>300 µM	NON	>300 µM	Non	Non	Non	20.5 µM	NON	Non	NON	None	–	–	–	–	–	–	–
NC(=O)NO [Hydroxyurea]	–	TER	–	TER	251.6 µM	Ter	Ter	Ter	–	TER	–	–	–	greater than 30%	565 µM	–	–	–	–	–
CC(=O)CC(c1ccccc1)c1c(O)c2ccccc2oc1=O (centres unmarked) [Warfarin]	–	–	–	–	–	Ter	Ter	Ter	–	TER	–	–	–	–	23.4 µM	TER	>300 µM	NON	–	–
C=CC=O [Acrolein]	–	–	–	–	–	Ter	Ter	Ter	–	–	Ter	–	–	–	–	–	–	–	–	–
CN(C)CCOC(c1ccccc1)c1ccccc1 [Diphenhydramine]	–	NON	–	NON	78.9 µM	Non	Non	Non	–	–	–	–	–	–	–	–	–	–	–	–
Cc1ncc(C[n+]2csc(CCO)c2C)c(N)n1 [Thiamine]	NON	NON	>300 µM	NON	>300 µM	Non	Non	Non	–	NON	Non	–	–	–	0.67 µM	–	–	–	None	–
CN(C)CCOC(C)(c1ccccc1)c1ccccn1 (centres unmarked) [Doxylamine]	–	NON	–	NON	>300 µM	Non	Non	Non	–	NON	–	–	–	–	0.38 µM	–	–	–	–	–
O=C1O[C@H]([C@@H](O)CO)C(O)=C1O [Ascorbic Acid]	–	NON	–	NON	>300 µM	Non	Non	Non	–	–	–	–	–	–	90 µM	–	–	–	–	–
N[C@@H](CC(=O)N1CCn2c(nnc2C(F)(F)F)C1)Cc1cc(F)c(F)cc1F [Sitagliptin]	NON	NON	22.6 µM	NON	>300 µM	–	–	–	0.95 µM	NON	–	TER	Low doses: None; High	–	–	–	–	–	–	NON
